Laboratory results taken from article PMC9897788, “Design, synthesis and cytotoxic evaluation of novel bis-thiazole derivatives as preferential Pim1 kinase inhibitors with in vivo and in silico study” (Journal of Enzyme Inhibition and Medicinal Chemistry, 2023).

Legend:
Ehrlich solid carcinoma = assay: In vivo cytotoxicity study, Ehrlich solid carcinoma model; parameters: species or system male Swiss albino mice; details: i.p. once weekly for 3 weeks, 8b 1 mg/kg, 3b 1.4 mg/kg, doxorubicin 2 mg/kg; for VEGF expression by immunohistochemistry / caspase-3 expression by immunohistochemistry: Ehrlich solid tumour tissue; for Histopathological examination of Ehrlich solid tumour (H&E): mice
Description: The National Cancer Institute (Cairo, Egypt) provided the 48 male Swiss albino mice utilised in this study, which ranged in weight from 25 to 30 g. Prior to the experiment, mice were given a week to settle into their new environment. A constant 23 °C temperature, 60% humidity, and a 12/12 light/dark cycle were maintained in stainless steel cages. Each cage housed five mice with a plenty of nourishing food and refreshing water were served. This in vivo study was approved from the ethical committee of the Azhar University, Faculty of Medicine, Egypt.
A female mouse with an 8-day-old ascetic tumour was obtained from the National Cancer Institute on the day of induction, and Ehrlich ascites carcinoma (EAC) cells were isolated from the ascetic fluid of the animal (day 0). Then, regular saline was used to dilute the ascetic fluid (1:10). Each mouse received a subcutaneous injection of 0.2 ml of ascetic fluid containing 2.5 × 10^6 EAC cells in the right thigh of the hind limb to induce Ehrlich solid-phase cancer.
On day 11 following ESC inoculation, tumour formation was observed as a solid mass expanding in the right thigh of each animal. The mice were then randomly divided into four groups (n = 6) • Group (1) acted as the […] control group and mice received an i.p. DMSO (2 mg/kg/once weekly) for 3 weeks. • Group (2) (Doxorubicin Group) mice received an i.p. dose of doxorubicin (2 mg/kg/once weekly) for 3 weeks. • Group (3) mice were given an i.p. dose of 8b compound (1 mg/kg/once weekly) for 3 weeks, • Group (4) mice were given an i.p. dose of 3b compound (1.4 mg/kg/once weekly) for 3 weeks.
Two days after the last dose of therapy, blood was drawn from the mice’s orbital canthus, and serum was separated and stored at −80 °C for upcoming biochemical investigations. Following the cervical dislocation method of euthanasia, tumour samples from each mouse were collected and preserved in neutral buffered formalin at a 10% concentration for immunohistochemistry and histopathology studies. Histological preparations were performed according to the reported method. Slices of Ehrlich tumour were cut to a thickness of 3–4 mm before being fixed in 10% neutral buffered formalin (10% NBF), dehydrated through a series of ethanol solutions, cleaned in xylene, and finally embedded in paraffin. To examine the overall tissue architecture, sections ([…]) thick were cut from paraffin blocks using a microtome and stained with haematoxylin and eosin. We used a Leica microscope (CH9435 Hee56rbrugg) to look at H&E-stained tissue sections (Leica Microsystems, Switzerland).
The avidin–biotin–peroxidase complex (ABC) method was used to do immunohistochemistry on paraffin sections that were put on positively charged slides. Rabbit Anti-VEGF Receptor 2 Polyclonal Antibody (Elabscience Cat# E-AB-63481, Dil.: 1:100) and Rabbit Monoclonal anti-caspase-3 antibody, active (cleaved) form (Sigma Aldrich Catalog # AB3623)[41], were utilised during this IHC assessment. Each group’s sections were treated with the previously specified antibodies, after which the ABC technique reagents (Vectastain ABC-HRP kit, Vector labs) were applied. To locate the antigen–antibody combination, marker expression was stained with diaminobenzidine (DAB, manufactured by Sigma) and labelled with peroxidase. In order to conduct negative controls, non-immune serum was substituted for the primary or secondary antibodies. IHC-stained sections were assessed using a Leica (CH9435 Hee56sbrugg) microscope (Leica Microsystems, Switzerland).
Using one-way analysis of variance (ANOVA) followed by Tukey’s post-hoc test, the difference between experimental groups was analysed. All data are presented as mean ± standard deviation (SD). All comparisons were judged statistically significant when the p values ≤ 0.05. ImageJ (NIH Image J system, Bethesda, MD) was used for the analysis of immunohistochemistry photos.

rat glioma = test system: rat glioma; parameters: method as in PMID 20036563, PMID 26890114; details: against rat glioma; read-out: antitumor activity IC50; cited from earlier work
HepG2 = test system: HepG2; parameters: method as in PMID 20036563, PMID 26890114; details: cell line not clearly printed, probably HepG2; read-out: antitumor activity IC50; cited from earlier work
Pim1 gene = test system: Pim1 gene; parameters: method as in PMID 34458233; details: quantitative RT-PCR; cited from earlier work
Pim1 = test system: Pim1; parameters: method as in PMID 25575657; details: cited from earlier work
Pim3 = test system: Pim3; parameters: method as in PMID 25575657; details: cited from earlier work
Pim2 = test system: Pim2; parameters: method as in PMID 25575657; details: cited from earlier work
leukaemia = test system: leukaemia; parameters: method as in PMID 20036563, PMID 26890114; details: against leukaemia; read-out: antitumor activity IC50; cited from earlier work

COc1cccc2c1C(=O)c1c(O)c3c(c(O)c1C2=O)C[C@@](O)(C(=O)CO)C[C@@H]3O[C@H]1C[C@H](N)[C@H](O)[C@H](C)O1 [Doxorubicin, doxorubicin, reference compound]
VEGF expression by immunohistochemistry (Ehrlich solid carcinoma): low expression of VEGF
caspase-3 expression by immunohistochemistry (Ehrlich solid carcinoma): moderate caspase-3 expression
VEGF expression by immunohistochemistry (Ehrlich solid carcinoma; listed as DOX): moderate
caspase-3 expression by immunohistochemistry (Ehrlich solid carcinoma; listed as DOX): positive caspase3 immunoreactivity
Histopathological examination of Ehrlich solid tumour (H&E) (Ehrlich solid carcinoma): small clusters of cancerous cells
Histopathological examination of Ehrlich solid tumour (H&E) (Ehrlich solid carcinoma; listed as doxorubicin): large region of necrotic muscle tissue surrounded by small clusters of cancerous cells

COc1cc(-c2ccc(Nc3nc(-c4ccc(Br)cc4)cs3)c(OC)c2)ccc1Nc1nc(-c2ccc(Br)cc2)cs1 [III]
IC50 (rat glioma): 15700 nM

CNc1nc(C)c(/C(C)=N\c2nc(C)c(/N=N/c3ccccc3)s2)s1 [IV]
IC50 (HepG2): 13200 nM

Cc1[nH]/c(=N/N=C2CCC(=N/N=c3/[nH]c(C)c(/N=N/c4ccccc4)s3)CC2)sc1/N=N/c1ccccc1 [IXa]
fold of change in Pim1 kinase activity (mRNA expression of Pim1 gene) (Pim1 gene): 0.4 fold

Cc1ccc(/N=N/c2s/c(=N\N=C3CCC(=N/N=c4/[nH]c(C)c(/N=N/c5ccc(C)cc5)s4)CC3)[nH]c2C)cc1 [IXb]
fold of change in Pim1 kinase activity (mRNA expression of Pim1 gene) (Pim1 gene): 0.5 fold

Cc1[nH]/c(=N/N=C2CCC(=N/N=c3/[nH]c(C)c(/N=N/c4ccccc4Cl)s3)CC2)sc1/N=N/c1ccccc1Cl [IXc]
fold of change in Pim1 kinase activity (mRNA expression of Pim1 gene) (Pim1 gene): 0.3 fold

O=C(Nc1cnccc1OC1CCNCC1)c1csc(-c2c(F)cccc2F)n1 [VIIIa]
IC50 (Pim1): 1 nM
IC50 (Pim3): 1 nM
IC50 (Pim2): 18 nM

O=C(Nc1cnccc1OC1CCCCC1)c1csc(-c2c(F)cccc2F)n1 [VIIIb]
IC50 (Pim1): 1 nM
IC50 (Pim2): 250 nM

Cc1sc(=N)n(-c2cccc(-n3c(-c4ccc(Cl)cc4)c(C)sc3=N)c2)c1-c1ccc(Cl)cc1 [VI]
IC50 (leukaemia): 1460 nM
